Data: patent publication US20110166196A1, “TREATMENT AND PROPHYLAXIS OF EPILEPSY AND FEBRILE SEIZURES” (priority 2008, published 2011)

System: synapses between CA3 and CA1 pyramidal cells
Assay: Field EPSP recordings in hippocampal slices
Assay type: cell-based, rat
Description: The maximal initial slope of fEPSPs was calculated using a LabVIEW-based program (National Instruments). The peak amplitude of each EPSC was measured by comparing a 10 msec time period immediately prior to the stimulus with the peak of the EPSC using this program as well. Occasionally polysynaptic responses were evoked, and in these cases, only the initial monosynaptic event was measured. To positively identify LTD, EPSCs measured every 10 seconds were averaged in 1 minute intervals. EPSC amplitude values were normalized to control pre-HFS EPSC amplitude values (baseline period of at least 5 minutes prior to HFS) and subjected to analysis of variance (ANOVA) repeated measures analysis with a post-hoc Dunnett's test (GraphPad Prism, Version 4). […] EPSC amplitude values 15 to 20 minutes post-HFS were compared between control LTD experiments and those carried out either in transgenic TRPV1^−/− mice, or in the presence of drug using a t-test (unpaired, two-tailed, with Welch's correction if the variances between the groups were unequal). To calculate the effects of capsaicin, 12-(S)-HPETE or WIN 55,212-2 application on basal excitatory glutamatergic transmission, normalized EPSC amplitudes or fEPSP slopes were averaged in the final 5 minutes of drug application and compared with EPSCs/EPSPs 5 minutes prior to drug application. In addition, to measure capsaicin's effects on holding current, the peak change in holding current was measured during bath application of 3 μM capsaicin. The n-values reported refer to the number of slices. All combined data are expressed as mean±the standard error of the mean (s.e.m.).

COc1cc(CNC(=O)CCCCC=CC(C)C)ccc1O [capsaicin, 8-methyl-N-vanillyl-6-nonenamide]
fEPSP slopes after 10-15 minutes in capsaicin (1 μM capsaicin, P=0.58, n=5): 102.8±5.4 % of pre-drug control values | effect on synaptic transmission at the CA3-CA1 synapse (10 μM capsaicin, often with depression of presynaptic fiber volley): depressed synaptic transmission
